The values below are quoted from earlier work in US20230089681A1, “USE OF A COMBINATION OF SULFICANT COMPOUNDS WITH A LIQUID CARRIER AS A SELF EMULSIFYING DRUG DELIVERY SYSTEM” (priority 2021, published 2023).

Like-named read-outs stand apart in the source and are kept apart here.

As to `COc1ccc2cc3[n+](cc2c1OC)CCc1cc2c(cc1-3)OCO2` [Berberine], the absorption reads like this: (oral, in capsule form taken with water) 0.306%; (traditional oral administration) 0.36%.
